For data set [1], the system named is 3T3-L1. Nature of the data set: Hypoglycemic activity in mouse 3T3L1 cells assessed as increase in glucose consumption at 12.5 ug/ml after 24 hrs by 2-deoxyglucose uptake assay. It is filed as functional, cell-based.
Data set [2] deals with 3T3-L1. Nature of the data set: Effect on lipid accumulation in mouse 3T3L1 cells at 20 ug/ml for 7 days by Oil Red O dye. It is filed as functional, cell-based.
The subject of data set [3] is 3T3-L1. Kind of data set: Hypoglycemic activity in mouse 3T3L1 cells assessed as increase in glucose consumption at 50 ug/ml after 24 hrs by 2-deoxyglucose uptake assay. It is filed as functional, cell-based.
In data set [4] the test system is 3T3-L1. Kind of data set: Hypoglycemic activity in mouse 3T3L1 cells assessed as increase in glucose consumption at 25 ug/ml after 24 hrs by 2-deoxyglucose uptake assay. The data set is classed as functional, cell-based.
A short description of data set [5]: Antioxidant activity assessed as ABTS radical scavenging activity. It is filed as physicochemical.
Data set [6] is described as follows: Antioxidant activity assessed as DPPH radical scavenging activity. The data set is classed as physicochemical.
Data set [7] deals with 3T3-L1. Kind of data set: Hypoglycemic activity in mouse 3T3L1 cells assessed as increase in glucose consumption at 50 ug/ml after 24 hrs by 2-deoxyglucose uptake assay.

Converted amounts (≈) assume the structure as drawn. The source made the active and inactive calls. The calls are words filed in the database; no cut-off is given here.

For `C=CCCCCCC(O)C(O)C(O)C#CC#CCCC` (stereo not drawn), the outcome in the data set with 3T3-L1 [1], with 3T3-L1 [3] and in the data set on 3T3-L1 [4] was Active. Also, the outcome in the data set with 3T3-L1 [2] was inactive.

Turning to `CCOC(=O)/C=C/c1ccc(O)c(O)c1` [ETHYL CAFFEATE], the EC50 turned out to be 0.19 µg/mL (≈ 0.913 µM) in data set [5] and 0.18 µg/mL (≈ 0.864 µM) in data set [6]. The result with 3T3-L1 [3] was Active.

In the case of `O=c1cc(-c2ccc(O)cc2)oc2cc(O)cc(O)c12`, in the data set on 3T3-L1 [7], the result was inactive.

By EC50 is commonly meant the concentration at which the effect is half-maximal.

These data come from ChEMBL document CHEMBL3352648, “Bioactive constituents of Cirsium japonicum var. australe” (J Nat Prod, 2014).
